In patent EP1178110A1, “EDG8 receptor for sphingosine 1-phosphate , its preparation and use” (Aventis Pharma Deutschland GmbH, priority 2000, dated 2002):

Columns and labels:
human EDG8, SEQ ID NO. 2 = test: FLIPR assay of intracellular Ca2+ mobilization in transiently transfected CHO cells; type: cell-based; conditions: for increase in intracellular Ca^2+: lipids at 10, 100 and 1000 nM, CHO cells with EDG8 and Gα16 or Gαqi5 (Fig.3), LPA and DHS1P active at 100 and 1000 nM, SPC and LPC tested up to 1 µM
Protocol: (§1) CHO-K1 cells were grown in basal ISCOVE medium supplemented with 10% fetal bovine serum at 37°C in a humidified 5% CO2 incubator. For transfections, 2 x 10^5 cells were seeded into 35-mm dishes. About 24 hr later cells were transiently transfected at 50-80% confluency with the indicated receptor and G-protein constructs (1µg of plasmid DNA each) using the Lipofectamine transfection reagent and the supplied protocol (GIBCO). 18-24 hr after transfection cells were seeded into 96well plates at a density of 50.000 cells per well and cultured for 18-24 additional hr until used in the functional FLIPR assays. The cDNA for Gα16 was cloned from TF1 cells by RT-PCR and ligated into the pCDNA1.1 mammalian expression vector (Invitrogen). Murine wild type Gαq was cloned from cells by RT-PCR and inserted into the BamHl-Nsil-sites of pCDNA1.1. To create the C-terminally modified Gαqi5 subunit, in which the last five aa of wt Gαq were replaced with the correspoding Gαi sequence, a 175-bp Bg/II-NsiI fragment was replaced, in a two piece ligation, with a synthetic DNA fragment, containing the desired codon changes. The correctness of all PCR-derived sequences was verified by sequencing in both directions.
(§2) Twenty-four hours after transfection, cells were splitted into 96-well, black-wall microplates (Corning) at a density of 50,000 cells per well. 18-24 hr later, cells were loaded with 95µl of HBSS containing 20 mM Hepes, 2.5 mM probenecid, 4 µM fluorescent calcium indicator dye Fluo4 (Molecular Probes) and 1% fetal bovine serum for 1 h(37°C, 5% CO2). Cells were washed three times with HBSS containing 20 mM Hepes and 2.5 mM probenecid in a cell washer. After the final wash, the solution was aspirated to a residual volume of 100 µl per 96 well. Lipid ligands were dissolved in DMSO as 2 mM stock solutions (treated with ultrasound when necessary) and diluted at least 1:100 into HBSS containing 20 mM HEPES, 2.5 mM probenecid and 0.4 mg/ml fatty acid free bovine serum albumine. Lipids were aliquoted as 2X solutions into a 96 well plate prior to the assay. The fluorometric imaging plate reader (FLIPR, Molecular Devices) was programmed to transfer 100 µl from each well of the ligand microplate to each well of the cellplate and to record fluorescence during 3 min in 1 second intervals during the first minute and 3 second intervals during the last two minutes. Total fluorescence counts from the 18-s to 37-s time points are used to determine agonist activity. The instrument software normalizes the fluorescent reading to give equivalent initial readings at time zero.

EDG3 receptor = test: as above; type: cell-based, human; conditions: S1P 10, 100 and 1000 nM; CHO cells with EDG3 (Fig.2C)
Protocol: as §1, §2

EDG5 receptor = test: as above; type: cell-based, human; conditions: S1P 10, 100 and 1000 nM; CHO cells with EDG5 (Fig.2D)
Protocol: as §1, §2

EDG6 receptor = test: as above; type: cell-based, human; conditions: S1P 10, 100 and 1000 nM; CHO cells with EDG6, no cotransfected G-protein α subunit (Fig.2E)
Protocol: as §1, §2

EDG1 receptor = test: as above; type: cell-based, human; conditions: S1P 10, 100 and 1000 nM; CHO cells with EDG1 (Fig.2B)
Protocol: as §1, §2

[1] = tested on: CHO cells transfected with empty vector DNA; test: FLIPR assay of intracellular Ca2+ mobilization in control CHO cells without receptor; type: cell-based, chinese hamster; conditions: S1P 10, 100 and 1000 nM; empty vector DNA (Fig.2A)
Protocol: CHO-K1 cells were grown in basal ISCOVE medium supplemented with 10% fetal bovine serum at 37°C in a humidified 5% CO2 incubator. For transfections, 2 x 10^5 cells were seeded into 35-mm dishes. About 24 hr later cells were transiently transfected at 50-80% confluency with the indicated receptor and G-protein constructs (1µg of plasmid DNA each) using the Lipofectamine transfection reagent and the supplied protocol (GIBCO). 18-24 hr after transfection cells were seeded into 96well plates at a density of 50.000 cells per well and cultured for 18-24 additional hr until used in the functional FLIPR assays. The cDNA for Gα16 was cloned from TF1 cells by RT-PCR and ligated into the pCDNA1.1 mammalian expression vector (Invitrogen). […]
Twenty-four hours after transfection, cells were splitted into 96-well, black-wall microplates (Corning) at a density of 50,000 cells per well. […] The fluorometric imaging plate reader (FLIPR, Molecular Devices) was programmed to transfer 100 µl from each well of the ligand microplate to each well of the cellplate and to record fluorescence during 3 min in 1 second intervals during the first minute and 3 second intervals during the last two minutes. Total fluorescence counts from the 18-s to 37-s time points are used to determine agonist activity. The instrument software normalizes the fluorescent reading to give equivalent initial readings at time zero.

## CCCCCCCCCCCCCCCC(O)C(N)COP(=O)(O)O (stereo not drawn) [DHS1P]
Human EDG8, SEQ ID NO. 2
  increase in intracellular Ca^2+: evoked [Ca^2+]i increases

## CCCCCCCC/C=C\CCCCCCCC(=O)OCC(O)COP(=O)(O)O (stereo not drawn) [LPA, lysophosphatidic acid]
Human EDG8, SEQ ID NO. 2
  increase in intracellular Ca^2+: evoked [Ca^2+]i increases

## CCCCCCCCCCCCC/C=C/[C@@H](O)[C@@H](N)COP(=O)(O)O [S1P, sphingosin 1-phosphate]
EDG3 receptor
  mobilization of [Ca^2+]i: mobilize [Ca^2+]i
EDG5 receptor
  mobilization of [Ca^2+]i: mobilize [Ca^2+]i
EDG6 receptor
  Ca^2+ increase above basal levels: failed to detect a significant Ca^2+ increase above basal levels
EDG1 receptor
  mobilization of [Ca^2+]i: mobilize [Ca^2+]i
Human EDG8, SEQ ID NO. 2; S1P 10, 100 and 1000 nM, CHO cells with EDG8, no cotransfected G-protein α subunit (Fig.2F)
  release of [Ca^2+]i: did not release [Ca^2+]i
Human EDG8, SEQ ID NO. 2; S1P 10, 100 and 1000 nM, CHO cells with EDG8 cotransfected with Gα16 or Gαqi5 (Fig.2F)
  mobilization of Ca^2+: gained the ability to mobilize Ca^2+
Human EDG8, SEQ ID NO. 2
  increase in intracellular Ca^2+: most potent activator of EDG8
[1]
  rises in intracellular Ca^2+: None of the applied S1P concentrations was capable of eliciting significant rises in intracellular Ca^2+

## CCCCCCCCCCCCCC=CC(O)C(N)COP(=O)([O-])OCC[N+](C)(C)C (stereo not drawn) [SPC, sphingosylphosphorylcholine]
Human EDG8, SEQ ID NO. 2
  increase in intracellular Ca^2+: failed to generate any significant response

## lysophosphatidylcholine [LPC]
Human EDG8, SEQ ID NO. 2
  increase in intracellular Ca^2+: failed to generate any significant response
